Test results from patent US12336981B2, “Compounds and compositions for the inhibition of NAMPT” (Valo Health, Inc., priority 2010, dated 2025).
Read-outs that look alike come from different tables or passages of the source.

Assays:
NAMPT = biological target: T1, NAMPT (Homo sapiens, UniProt P43490); assay: Biochemical inhibition assay: NAMPT enzymatic reaction, NMN quantified by mass spectrometry; settings: read-out: Biochem IC50
T1 construct: His tag; host or cells: E. coli
How it was run: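 Inhibition of E. coli-expressed His-tagged human NAMPT, measured as NMN formation by mass spectrometry after a 30 min room-temperature reaction containing 1 μM NAM, 100 μM PRPP and 2.5 mM ATP.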

A2780 cells = assay: In-vitro cell proliferation assay (SRB), A2780 cells; format: cell-based; settings: Homo sapiens, A2780, 72 h, A2780 cells, 72 hours, read-out: A2780 IC50
How it was run: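 Growth inhibition was derived from background-corrected SRB absorbance (570 nm), measured on cells fixed in 6% TCA after three days of compound treatment under 5% CO2 at 37° C.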

T1 sequence (P43490 whole entry): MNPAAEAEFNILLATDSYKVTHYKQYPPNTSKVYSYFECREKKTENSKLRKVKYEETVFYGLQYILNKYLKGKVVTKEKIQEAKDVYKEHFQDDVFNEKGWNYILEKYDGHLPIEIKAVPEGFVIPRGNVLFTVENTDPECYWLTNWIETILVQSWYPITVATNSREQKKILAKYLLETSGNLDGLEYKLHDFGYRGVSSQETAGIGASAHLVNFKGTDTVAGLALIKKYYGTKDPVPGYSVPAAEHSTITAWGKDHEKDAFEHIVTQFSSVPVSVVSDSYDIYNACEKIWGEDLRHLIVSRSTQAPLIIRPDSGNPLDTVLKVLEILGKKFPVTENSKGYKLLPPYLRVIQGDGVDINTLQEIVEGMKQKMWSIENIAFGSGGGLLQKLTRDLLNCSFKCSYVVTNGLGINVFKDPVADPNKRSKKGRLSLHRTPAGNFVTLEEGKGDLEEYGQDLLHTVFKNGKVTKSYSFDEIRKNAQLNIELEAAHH

SMILES | IC50 (NAMPT; NAMPT enzymatic reaction) [nM] | IC50 (A2780 cells; SRB assay) [nM] | IC50 (A2780 cells; SRB) [nM] | IC50 (NAMPT; NAMPT enzymatic assay) [nM]
O=C(NCc1ccc(S(=O)(=O)c2ccc3ncccc3c2)cc1)c1cc2ccncc2s1 [N-{[4-(quinoline-6-sulfonyl)phenyl]methyl}thieno[2,3-c]pyridine-2-carboxamide] | 3 | 0.9 |  | 
Cc1cccc(S(=O)(=O)c2ccc(CNC(=O)c3ccc4nccn4c3)cc2)c1F | 7.5 |  | 3.3 | 
CCOc1ccc(S(=O)(=O)c2ccc(CNC(=O)c3ccc4nccn4c3)cc2)cc1F | 12.7 |  | 1.8 | 
Cc1ccc(S(=O)(=O)c2ccc(CNC(=O)c3cc4ccncc4s3)cc2)cc1C [N-({4-[(3,4-dimethylbenzene)sulfonyl]phenyl}methyl)thieno[2,3-c]pyridine-2-carboxamide] | 6 | 2.3 |  | 
O=C(NCc1ccc(S(=O)(=O)c2ccc(-n3cccn3)cc2F)cc1)c1cnc2[nH]ncc2c1 |  |  | 34.4 | 38.9
O=C(NCc1ccc(S(=O)(=O)c2cccc3c2oc2ccccc23)cc1)c1cc2ccncc2o1 |  |  | 12.8 | 12.4
COc1ccc(S(=O)(=O)c2ccc(CNC(=O)c3cc4cnccc4[nH]3)cc2)c(C)c1 [N-({4-[(4-methoxy-2-methylbenzene)sulfonyl]phenyl}methyl)-1H-pyrrolo[3,2-c]pyridine-2-carboxamide] | 24 | 24 |  | 
Cc1cc(C)cc(S(=O)(=O)c2ccc(CNC(=O)c3cc4ccncc4o3)cc2)c1 | 16.7 |  | 2.8 | 
O=C(NCc1ccc(S(=O)(=O)c2cccc(-n3cccn3)c2)cc1)c1cc2ccncc2s1 [N-[(4-{[3-(1H-pyrazol-1-yl)benzene]sulfonyl}phenyl)methyl]thieno[2,3-c]pyridine-2-carboxamide] |  |  | 0.1 | 1.5
O=C(NCc1ccc(S(=O)(=O)c2cccc3c2Oc2ccccc2S3)cc1)c1cnc2nccn2c1 [N-{[4-(phenoxathiine-4-sulfonyl)phenyl]methyl}imidazo[1,2-a]pyrimidine-6-carboxamide] |  |  | 4.2 | 2.1
CC(C)c1ccc(S(=O)(=O)c2ccc(CNC(=O)c3cc4ccncc4o3)cc2)cc1 |  |  | 8 | 11.9
COc1cc(Cl)cc(S(=O)(=O)c2ccc(CNC(=O)c3ccc4nccn4c3)cc2)c1 | 9.2 |  | 1.5 | 
CCCCOc1ccc(S(=O)(=O)c2ccc(CNC(=O)c3cc4ccncc4o3)cc2)cc1F | 12.3 |  | 13.9 | 
Cn1cc(S(=O)(=O)c2ccc(CNC(=O)c3cc4ccncc4o3)cc2)cn1 [N-{[4-(1-methyl-1H-pyrazole-4-sulfonyl)phenyl]methyl}furo[2,3-c]pyridine-2-carboxamide] |  |  | 65.4 | 16.8
COc1ccc(S(=O)(=O)c2ccc(CNC(=O)c3cc4cnccc4[nH]3)cc2)cc1F [N-({4-[(3-fluoro-4-methoxybenzene)sulfonyl]phenyl}methyl)-1H-pyrrolo[3,2-c]pyridine-2-carboxamide] | 5 | 4 |  | 
CCNC(=O)c1ccc(S(=O)(=O)c2ccc(CNC(=O)c3cc4ccncc4o3)cc2)cc1 |  |  | 6.7 | 4.5
O=C(NCc1ccc(S(=O)(=O)c2ccc3c(c2)OCO3)cc1)c1cnc2[nH]ncc2c1 [N-{[4-(2H-1,3-benzodioxole-5-sulfonyl)phenyl]methyl}-1H-pyrazolo[3,4-b]pyridine-5-carboxamide] |  |  | 7.4 | 48.2
COc1cc(F)c(F)cc1S(=O)(=O)c1ccc(CNC(=O)c2cc3cnccc3[nH]2)cc1 [N-({4-[(4,5-difluoro-2-methoxybenzene)sulfonyl]phenyl}methyl)-1H-pyrrolo[3,2-c]pyridine-2-carboxamide] | 14 | 6 |  | 

SMILES | IC50 (NAMPT; NAMPT enzymatic reaction) [nM] | IC50 (A2780 cells; SRB assay) [nM] | IC50 (A2780 cells; SRB) [nM] | IC50 (NAMPT; NAMPT enzymatic assay) [nM]
COc1ccc(S(=O)(=O)c2ccc(CNC(=O)c3cc4ccncc4s3)cc2)cc1 [N-({4-[(4-methoxybenzene)sulfonyl]phenyl}methyl)thieno[2,3-c]pyridine-2-carboxamide] | 5 | 2.7 |  | 
CNS(=O)(=O)c1ccccc1S(=O)(=O)c1ccc(CNC(=O)c2cc3ccncc3o2)cc1 |  |  | 74 | 51.3
Cc1ccc(S(=O)(=O)c2ccc(CNC(=O)c3ccc4nccn4c3)cc2)c(C)c1 [N-({4-[(2,4-dimethylbenzene)sulfonyl]phenyl}methyl)imidazo[1,2-a]pyridine-6-carboxamide] | 21.6 |  | 32.1 | 
O=C(NCc1ccc(S(=O)(=O)c2cccc3cccnc23)cc1)c1cnc2nccn2c1 [N-{[4-(quinoline-8-sulfonyl)phenyl]methyl}imidazo[1,2-a]pyrimidine-6-carboxamide] |  |  | 27.7 | 3
CC(C)Oc1ccc(Cl)cc1S(=O)(=O)c1ccc(CNC(=O)c2cnc3[nH]ncc3c2)cc1 [N-[(4-{[5-chloro-2-(propan-2-yloxy)benzene]sulfonyl}phenyl)methyl]-1H-pyrazolo[3,4-b]pyridine-5-carboxamide] |  |  | 27.1 | 67.8
Cc1ncccc1S(=O)(=O)c1ccc(CNC(=O)c2cnc3nccn3c2)cc1 [N-{[4-(2-methylpyridine-3-sulfonyl)phenyl]methyl}imidazo[1,2-a]pyrimidine-6-carboxamide] |  |  | 100 to 1000 | 20.8
O=C(NC1CCCC1)c1cccc(S(=O)(=O)c2ccc(CNC(=O)c3cc4ccncc4s3)cc2)c1 |  |  | 13.8 | 4.8
O=C(NCc1ccc(S(=O)(=O)Nc2ccccc2N2CCCCC2)cc1)c1cc2cnccc2[nH]1 [N-[(4-{[2-(piperidin-1-yl)phenyl]sulfamoyl}phenyl)methyl]-1H-pyrrolo[3,2-c]pyridine-2-carboxamide] | 72 | 8 |  | 
O=C(NCc1ccc(S(=O)(=O)c2cccc3cccnc23)cc1)c1ccc2nccn2c1 [N-{[4-(quinoline-8-sulfonyl)phenyl]methyl}imidazo[1,2-a]pyridine-6-carboxamide] |  |  | 5.5 | 9.8
COc1c(Cl)ccc(S(=O)(=O)c2ccc(CNC(=O)c3ccc4nccn4c3)cc2)c1Cl | 31.1 |  | 13 | 
COc1cc(S(=O)(=O)c2ccc(CNC(=O)c3cc4ccncc4o3)cc2)ccc1C | 4.6 |  | 3.1 | 
O=C(NCc1ccc(S(=O)(=O)c2ccc(-n3cccn3)c(F)c2)cc1)c1ccc2nccn2c1 [N-[(4-{[3-fluoro-4-(1H-pyrazol-1-yl)benzene]sulfonyl}phenyl)methyl]imidazo[1,2-a]pyridine-6-carboxamide] |  |  | 3.41 | 5.37
Cc1ccc(S(=O)(=O)c2ccc(CNC(=O)c3cc4ccncc4s3)cc2)cc1Cl | 5.1 |  | 1 | 
O=C(NCc1ccc(S(=O)(=O)c2ccc(N3CCOCC3)cc2)cc1)c1ccc2nccn2c1 |  |  | 0.9 | 3.5
Cc1ccc(S(=O)(=O)c2ccc(CNC(=O)c3ccc4nccn4c3)cc2)c(F)c1 [N-({4-[(2-fluoro-4-methylbenzene)sulfonyl]phenyl}methyl)imidazo[1,2-a]pyridine-6-carboxamide] | 21.4 |  | 24.7 | 
COc1ccc2cc(S(=O)(=O)c3ccc(CNC(=O)c4cc5ccncc5s4)cc3)ccc2c1 [N-{[4-(6-methoxynaphthalene-2-sulfonyl)phenyl]methyl}thieno[2,3-c]pyridine-2-carboxamide] |  |  | 3.3 | 1.5
O=C(NCc1ccc(S(=O)(=O)c2ccc(C(F)(F)F)cc2F)cc1)c1cc2ccncc2s1 |  |  | 42.3 | 20.2
